Test results as given in the NIST ThermoML archive (doi:10.1021/je100287g).
± gives the expanded uncertainty stated by the source.

Assay: cn = amount concentration of the nth substance listed, in mol/dm3
Conditions: 101 kPa, Liquid, digital conductivity meter (CM-180, Elico India)

With `Nc1ccc(S(=O)(=O)[N-]c2nccs2)cc1.[Na+]` [sodium ((4-aminophenyl)sulfonyl)(thiazol-2-yl)amide] + O the electrical conductivity (283 K, c1 = 0.001) was 0.0053 ± 0.0019 S/m, the electrical conductivity (283 K, c1 = 0.002) was 0.0101 ± 0.0018 S/m and the electrical conductivity (283 K, c1 = 0.004) was 0.0189 ± 0.0018 S/m. It also gave an electrical conductivity (283 K, c1 = 0.006) of 0.0281 ± 0.0018 S/m, an electrical conductivity (283 K, c1 = 0.008) of 0.0366 ± 0.0019 S/m and an electrical conductivity (283 K, c1 = 0.01) of 0.0468 ± 0.002 S/m. It also gave an electrical conductivity (293 K, c1 = 0.001) of 0.0064 ± 0.0024 S/m, an electrical conductivity (293 K, c1 = 0.002) of 0.0124 ± 0.0022 S/m and an electrical conductivity (293 K, c1 = 0.004) of 0.0233 ± 0.0022 S/m. The electrical conductivity (293 K, c1 = 0.006) was 0.0344 ± 0.0021 S/m, the electrical conductivity (293 K, c1 = 0.008) was 0.0447 ± 0.0023 S/m and the electrical conductivity (293 K, c1 = 0.01) was 0.0574 ± 0.0027 S/m. For the same compound, the electrical conductivity (303 K, c1 = 0.001) was 0.0078 ± 0.0029 S/m, the electrical conductivity (303 K, c1 = 0.002) was 0.0151 ± 0.0028 S/m and the electrical conductivity (303 K, c1 = 0.004) was 0.0288 ± 0.0027 S/m. For the same compound, the electrical conductivity (303 K, c1 = 0.006) was 0.0423 ± 0.0026 S/m, the electrical conductivity (303 K, c1 = 0.008) was 0.0545 ± 0.0028 S/m and the electrical conductivity (303 K, c1 = 0.01) was 0.07 ± 0.0034 S/m. It also gave an electrical conductivity (313 K, c1 = 0.001) of 0.00967 ± 0.0039 S/m, an electrical conductivity (313 K, c1 = 0.002) of 0.0195 ± 0.0034 S/m and an electrical conductivity (313 K, c1 = 0.004) of 0.0353 ± 0.0032 S/m. The electrical conductivity (313 K, c1 = 0.006) was 0.0516 ± 0.0031 S/m, the electrical conductivity (313 K, c1 = 0.008) was 0.0661 ± 0.0035 S/m and the electrical conductivity (313 K, c1 = 0.01) was 0.0866 ± 0.0041 S/m.
